According to US9725430B2, “Use of small molecule inhibitors targeting EYA tyrosine phosphatase” (Children's Hospital Medical Center, priority 2013, dated 2017):

Key:
EYA3 = EYA3 (Homo sapiens (Human), UniProt Q99504); assay: pNPP assay, full-length human recombinant EYA3; format: biochemical; conditions: pNPP substrate, full-length EYA3
Description: The catalytic domain of mouse Eya3 (“ED”, comprising residues 223-510 of Eya3) was purified as described by Rayapureddi, J. P. et al. (FEBS Lett 580, 3853-3859 (2006), incorporated by reference in its entirety). For full-length Eya3 (“hEYA3”), human Eya3 isoform 2 (representing the major species identified in human cell lines by mass spectrometry, expressed as residues 127-573 of NM_001990, isoform 1) was sub-cloned into pDEST565 to express a poly-histidine-Glutathione-S-transferase (His-GST) tagged fusion protein with a TVMV protease site. The protein was purified by glutathione-S-transferase affinity chromatography followed by TVMV cleavage, Ni-NTA chromatography, and finally size exclusion chromatography. […]
The compounds were then tested using full-length human recombinant, purified EYA3 and pNPP as a substrate. Compounds were dissolved in DMSO and diluted as needed. […] Reactions were incubated at 30° C. for 30 minutes and quenched with 100 mM EDTA pH 10. IC50 values were then calculated directly from regression curves using PRISM software. All reported values are the mean of two independent experiments.

HUVECs [1] = assay: HUVEC cell viability assay (WST-8); format: cell-based, human; conditions: 3 days of exposure
Experimental: Additionally, a cell viability assay was conducted over 3 days of exposure to test compounds 1, 1a and 1g in order to assess both the possibility of immediate cellular toxicity as well as any effect on cell proliferation. HUVECs were seeded and equilibrated for 24 hours before addition of the test compounds. Cellular metabolic activity was measured at defined time-points using the tetrazolium dye WST-8 to quantify NAD(P)H-dependent cellular oxidoreductase enzyme activity.

HUVEC cells = assay: Scratch wound healing assay, HUVEC; format: cell-based, human; conditions: counted 22 hours later
Experimental: Cells were plated and grown to confluency. Scratch wounds were made using a sterile pipette tip, the medium changed to remove any cellular debris, and fresh medium with either vehicle or test compound was introduced. The number of cells that migrated into the cleared space was counted 22 hours later.

HUVECs [2] = assay: HUVEC tubulogenesis on Matrigel; format: cell-based, human; conditions: for tube formation on Matrigel: HUVEC
Description: Primary endothelial cells (ECs) on basement membrane rapidly attach, align themselves and form capillary-like tubules with lumens and tight cell-cell contacts. […] To better understand the stage in matrigel tube-formation affected by compound 1g cells plated on growth-factor reduced matrigel and treated with either vehicle or compound 1g were followed. Differences become apparent within the first two hours and were clearly visible at the 6-hour time-point. The ECs are much less organized in the presence of compound 1g. […] The effect of compound 1g on tube formation was attenuated in the presence of high concentrations of fetal bovine serum (FBS), likely reflecting non-specific protein binding.
The EYA inhibitors were also tested in tubulogenesis assays. The tubulogenesis assays were performed in 15-well micro-slide (ibidi LLC, Verona Wis.), using growth factor-reduced matrigel (BD Bioscience, Billerica, Mass.). The matrix was prepared by loading 10 μl of matrigel in each micro-slide well and allowing it to solidify for 30 minutes at 37° C. HUVECs were trypsinized and resuspended at 100.000 cell/ml in EBM+2.5% FBS. 50 μl (5,000 cell) were loaded on top of the solidified matrigel and the preparation was incubated for 20 hours at 37° C. in a humidified incubator in a 5% CO2 atmosphere. Bright field images were taken using an inverted microscope at 2.5× magnification, which allowed imaging of the whole well in two pictures that were later merged in Photoshop. Tubular structures were traced and counted using NeuroJ (NIH, USA). In experiments with inhibitor, the inhibitor was added to the cell suspension before loading. Each sample was loaded in triplicate, and each treatment was repeated for reproducibility.

mouse aortic rings = assay: Aortic ring sprouting assay; format: cell-based
Experimental: Additionally, the effect of compounds 1d, 1f, 1h, 1i, 1g, 2 and 2a on cell proliferation, migration, tube formation, micro-vessel branching, and perivascular recruitment using an aortic ring sprouting assay. When slices of mouse aorta are cultured in collagen gels there is typically a lag phase for the first 4 days followed by linear sprouting of endothelial cells. By day 6, branching is observed. All the test compounds were initially assayed at 7.5 μM and the number of branch-points counted. When there was a severe effect (no visible sprouting), or when there was no apparent effect, other doses were tested to establish a dose-dependence. All of the compounds assayed were able to attenuate aortic ring sprouting. There was a strong reduction in initial sprouting and some attenuation of branching. With the exception of 2a, in all cases where there was sprouting, the length of sprouts was shorter than in the controls.
Endothelial cell migration can also be studied […] using the aortic ring assay in which sprouting angiogenesis is monitored by the formation of vascular sprouts outside the wall of mouse aortic rings incubated in collagen matrix and stimulated by VEGF (Gerhardt, H., et al. EXS, 3-15 (2005), hereby incorporated by reference in its entirety). Briefly, mice were obtained from the Cincinnati Children's veterinary service and handled according to the institutional animal care and use protocol. […] Mice were 4 to 6 weeks old female C57BL16, and aortic ring explants were cultured at 37° C. in a humidified incubator under a 5% CO2 atmosphere.
Each inhibitor was serially diluted (between 0.25 mM and 7.5 mM) to stocks of 1000× the working concentrations in sterile 100% DMSO in order to achieve an equal final concentration of DMSO (0.1% v/v) in all culture conditions. For the experiments, the compounds were diluted in EBM containing 2.5% FBS, penicillin/streptomycin and 20 ng/ml VEGF165 (R&D Systems, Minneapolis, Minn.). Each compound was applied from the first day of culture over a 10-day period with medium change every two days. In all experiments, the vehicle (DMSO, 0.1%) was used as control. The sprouting density was derived from counting the number of branches per ring, and the extent of angiogenic sprouting was estimated by measuring the total surface area covered by the vessels as illustrated in FIG. 7.

PTP1B = PTP1B (Homo sapiens (Human), UniProt P18031); assay: PTP1B-catalyzed pNPP hydrolysis; format: biochemical; conditions: pNPP substrate
PTP1B, sequence (P18031 whole entry, species assumed, the tested form may be a part): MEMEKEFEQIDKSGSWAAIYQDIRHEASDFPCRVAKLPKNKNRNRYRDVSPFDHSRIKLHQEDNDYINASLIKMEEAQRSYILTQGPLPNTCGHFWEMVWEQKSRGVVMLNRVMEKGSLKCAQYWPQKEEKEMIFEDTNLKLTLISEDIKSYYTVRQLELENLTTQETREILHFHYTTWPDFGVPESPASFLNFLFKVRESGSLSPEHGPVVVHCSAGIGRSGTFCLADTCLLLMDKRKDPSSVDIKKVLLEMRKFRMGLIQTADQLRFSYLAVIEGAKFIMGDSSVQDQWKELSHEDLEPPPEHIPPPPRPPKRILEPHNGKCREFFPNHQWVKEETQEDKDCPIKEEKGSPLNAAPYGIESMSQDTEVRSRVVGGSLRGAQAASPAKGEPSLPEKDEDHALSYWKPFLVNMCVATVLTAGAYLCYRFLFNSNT
Experimental: The catalytic domain of human Eya2 (“hEYA2(ED)”) was similarly sub-cloned as a polyhistidine fusion construct in the vector pDEST-527. Fusion protein was purified by NiNTA chromatography and followed by size-exclusion chromatography over a Superdex-75 column. The relative purity of protein samples was determined using SDS-PAGE. PTP1B was purified as described previously (Rayapureddi, J. P. et al. Nature 426, 295-298 (2003), incorporated by reference in its entirety).
An inhibitory assay was conducted using the previously described p-nitrophenylphosphate assay (Rayapureddi, J. P. et al. Nature 426, 295-298 (2003)). Briefly, ED was incubated in a reaction mixture containing 20 mM MES pH 6, 2 mM MgCl2, 125 μM inhibitor, 3.4 mM para-nitrophenol phosphate (pNPP) and 0.01 μg/μL enzyme.
PTP1B is a classical Cys-based tyrosine phosphatase.

MCF10A(EYA2) cells = assay: Transwell migration of MCF10A-EYA2 cells; format: cell-based; conditions: 7.5 μM
Description: The tyrosine phosphatase activity of Eya3 and Eya2 promotes single cell motility in breast cancer cells (Pandey, R. N. et al. Oncogene (2010) 29:3715-3722, incorporated by reference in its entirety). EYA2 is over-expressed in breast cancers and is associated with increased metastasis and a poorer outcome (Farabaugh, et al. Oncogene (2011) 259). […] Overexpression of EYA2, but not the tyrosine-phosphatase dead mutant, promoted cell motility (FIG. 2a). […] This effect was dose-dependent (FIG. 2d) and compound (1a) was able to reduce cell motility by over 50% at the lowest concentration (1 μM) tested.
(§1) In order to determine whether EYA3 knock down would affect cell migration, a modified Boyden chamber assay was used to measure HUVEC migration. Briefly, human umbilical vein endothelial cells (HUVECs) were purchased from Lonza (Walkersville, Md.) and maintained in the endothelial cell growth medium (PromoCell, Hleidelberg, Germany), under a 5% CO2 atmosphere. MCF10A cells from ATCC were stably transfected with either pcDNA 3.2N5-DEST (vector control), V5-EYA2 or V5-EYA2(D250N). Transwell migration experiments were performed as previously described (Pandey, R. N. et al. Oncogene 29, 3715-3722, (2010)).

HUVECs [3] = assay: HUVEC transwell migration; format: cell-based, human; conditions: 5 μM
Description: as §1

HUVECs [4] = assay: HUVEC proliferation (MTT); format: cell-based, human; conditions: 5 μM, 24 hours
[5] = test system: developing zebrafish vasculature; assay: Zebrafish model of angiogenesis; format: in vivo; conditions: exposure from 5.25 hpf, analysis at 24 hpf; compound 1 at 0.25 μM
Experimental: Embryos (FLK1-GFP trangenic) were maintained in fish water until the 50% epiboly stage (5.25 hpf) and were transferred into wells of 24-well plate containing the inhibitors in fish water. The analysis for vascular defects was performed after the 24 hpf stage, and embryos were imaged using a fluorescence microscope.
Transgenic fish expressing EGFP in endothelial cells (Tg(flk1:EGFP)) were used to facilitate visualization of the developing vasculature. In control experiments embryos were treated with 0.1% DMSO (vehicle). At the time of analyses (24 hpf) developing vessels normally migrated from the lateral plate mesoderm to the midline and formed the vascular cord, subsequently forming the dorsal aorta and the posterior cardinal vein and followed by the formation of intersegmental vessels at designated branch points (FIG. 6b).

retinal vasculature = assay: Mouse model of oxygen-induced retinopathy; format: in vivo, mice; conditions: 100 or 50 pmoles injected at P12, analyzed at P16
Description: The mouse model of oxygen-induced retinopathy mimics the retinopathy characteristic of proliferative retiopathy conditions such as retinopathy of prematurity and diabetic retinopathy. […] The resulting retinal hypoxia after day 12, when pups were brought back to 20% O2, induced excessive hypoxia-driven angiogenesis. A characteristic large avascular area at the center of the retina and excessive regrowth of superficial vessels (pre-retinal neovascular tufts) in the mid-peripheral region was observed. […] In contrast, inhibition of either Vegf or Vegfr2 in OIR experiments suppresses both neovascular tuft formation and revascularization.

EYA3, sequence (Q99504 127-573): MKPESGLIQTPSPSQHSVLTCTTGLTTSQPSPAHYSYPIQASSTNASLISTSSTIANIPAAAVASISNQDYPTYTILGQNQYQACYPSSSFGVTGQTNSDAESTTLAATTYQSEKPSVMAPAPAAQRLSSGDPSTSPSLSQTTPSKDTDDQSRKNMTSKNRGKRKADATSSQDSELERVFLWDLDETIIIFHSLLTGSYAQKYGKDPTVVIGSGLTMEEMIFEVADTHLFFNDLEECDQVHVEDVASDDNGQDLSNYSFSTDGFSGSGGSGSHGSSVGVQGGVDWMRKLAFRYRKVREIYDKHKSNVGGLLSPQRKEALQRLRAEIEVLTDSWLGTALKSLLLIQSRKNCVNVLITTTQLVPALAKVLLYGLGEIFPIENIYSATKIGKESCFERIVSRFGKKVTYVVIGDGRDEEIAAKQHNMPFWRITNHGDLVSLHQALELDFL

SMILES | IC50 (EYA3) [µM] | tube formation on Matrigel (HUVECs [2]) | other results
CCCCc1oc2ccccc2c1C(=O)c1ccc(O)cc1 [Compound 1b] | – | – | IC50 (PTP1B): 71.4 µM; cell migration (MCF10A(EYA2) cells): significantly inhibited cell migration; tubulogenesis inhibition (HUVECs [2]; 7.5 μM): effective at the highest concentrations tested; sprout length and microvascular density of aortic rings (mouse aortic rings; 5 μM, 10 days): shorter sprouts and significantly lower microvascular density; HUVEC cell motility (HUVECs [3]): attenuated HUVEC cell motility; HUVEC cell proliferation (HUVECs [4]): no effect on cell proliferation; intersegmental vessels in zebrafish embryos [5]: reduced the number of intersegmental vessels, but were less potent; formation of neovascular tufts (retinal vasculature): Significant reduction in the formation of neovascular tufts
CC(O)CCc1oc2ccccc2c1C(=O)c1cc(I)c(O)c(I)c1 (centres unmarked) [Compound 2a] | – | did not show significant attenuation of tube formation | –
CCc1oc2ccc(O)cc2c1C(=O)c1cc(Br)c(O)c(Br)c1 [Compound 1h] | 40.8 | did not show significant attenuation of tube formation | –
Cc1oc2ccccc2c1C(=O)c1ccc(O)cc1 [Compound 1k] | 81.1 | – | –
CCCCc1oc2ccccc2c1C(=O)c1cc(I)c(O)c(I)c1 [Compound 2] | – | did not show significant attenuation of tube formation | –
CCc1oc2ccccc2c1C(=O)c1cc(I)c(O)c(I)c1 [Compound 1c] | 3.4 | – | –
Cc1oc2ccccc2c1C(=O)c1cc(I)c(O)c(I)c1 [Compound 1d] | 8.3 | did not show significant attenuation of tube formation | –
Cc1oc2ccccc2c1C(=O)c1ccc(O)c(I)c1 [Compound 1f] | 17.5 | did not show significant attenuation of tube formation | –

Further lines, with some results ahead:

IC50 (EYA3) [µM] | SMILES | tube formation on Matrigel (HUVECs [2]) | other results
27.2 | CCc1oc2cc(O)ccc2c1C(=O)c1cc(Br)c(O)c(Br)c1 [Compound 1g] | much stronger inhibitory effect than compound 1a | reduction in cell proliferation (HUVECs [1]): over 50%; reduction of cell migration (HUVEC cells): ~80%; aortic ring sprouting (mouse aortic rings; initially assayed at 7.5 μM): most potent inhibitor
13.8 | CC(O)Cc1oc2ccccc2c1C(=O)c1cc(I)c(O)c(I)c1 (centres unmarked) [Compound 1e] | – | –
41.9 | CC(O)c1oc2ccccc2c1C(=O)c1cc(Br)c(O)c(Br)c1 (centres unmarked) [Compound 1i] | – | –
73.1 | CCc1oc2ccc(O)cc2c1C(=O)c1ccc(O)cc1 [Compound 1j] | – | –
